In patent publication US9149038B2, “4-amino-6-(heterocyclic)picolinates and 6-amino-2-(heterocyclic)pyrimidine-4-carboxylates and their use as herbicides” (Dow AgroSciences LLC, priority 2013, dated 2015):
Like-named read-outs stand apart in the source and are kept apart here.

How the values were obtained:
[1] = system: Key Broadleaf Weed and Crop Species; experiment: Post-Emergent Test II: postemergent herbicidal activity, visual rating after 14 d (Table 7); type: in vivo; settings: post-emergence, 336 h; for pest or weed control at 35 g/ha: 35 g ai/ha; for pest or weed control at 70 g/ha: 70 g ai/ha; for pest or weed control at 140 g/ha: 140 g ai/ha
Procedure, shortened: (§1)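 Plants were raised in a greenhouse for 7-21 d and treated once at the first or second true leaf stage. Compounds, dissolved in 97:3 acetone:DMSO then diluted into an aqueous acetone/isopropanol/crop oil/Triton X-155 carrier, were applied by overhead track sprayer at 187 L/ha. After 14 d with subirrigation, injury was scored visually from 0 (none) to 100 (complete kill).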

[2] = system: Key Grass and Sedge Weeds as well as Grass Crops; experiment: Post-Emergent Test II: postemergent herbicidal activity, visual rating after 14 d (Table 8); type: in vivo; settings: post-emergence, 336 h; for pest or weed control at 35 g/ha: 35 g ai/ha; for pest or weed control at 70 g/ha: 70 g ai/ha; for pest or weed control at 140 g/ha: 140 g ai/ha
Procedure, shortened: as §1

[3] = lambsquarters (Chenopodium album), read-out: Visual Growth Reduction (%) 14 Days After Application CHEAL
[4] = oilseed rape, canola (Brassica napus), read-out: Visual Growth Reduction (%) 14 Days After Application BRSNN
[5] = redroot pigweed (Amaranthus retroflexus), read-out: Visual Growth Reduction (%) 14 Days After Application AMARE
[6] = sunflower (Helianthus annuus), read-out: Visual Growth Reduction (%) 14 Days After Application HELAN
[7] = velvetleaf (Abutilon theophrasti), read-out: Visual Growth Reduction (%) 14 Days After Application ABUTH
[8] = wild poinsettia (Euphorbia heterophylla), read-out: Visual Growth Reduction (%) 14 Days After Application EPHHL
[9] = barnyardgrass (Echinochloa crus-galli), read-out: Visual Growth Reduction (%) 14 Days After Application ECHCG
[10] = giant foxtail (Setaria faberi), read-out: Visual Growth Reduction (%) 14 Days After Application SETFA
[11] = maize, corn (Zea mays), read-out: Visual Growth Reduction (%) 14 Days After Application ZEAMX
[12] = rice (Oryza sativa), read-out: Visual Growth Reduction (%) 14 Days After Application ORYSA
[13] = wheat, spring (Triticum aestivum), read-out: Visual Growth Reduction (%) 14 Days After Application TRZAS
[14] = yellow nutsedge (Cyperus esculentus), read-out: Visual Growth Reduction (%) 14 Days After Application CYPES

Work on `COC(=O)c1nc(-c2cc3c(cc2F)OC(F)(F)O3)nc(N)c1OC` [Compound 64] yielded a pest or weed control at 35 g/ha [1, 3] of 0 to 29%, a pest or weed control at 70 g/ha [1, 3] of 0 to 29% and a pest or weed control at 140 g/ha [1, 3] of 0 to 29%. For the same compound, the pest or weed control at 35 g/ha [1, 4] was 0 to 29%, the pest or weed control at 70 g/ha [1, 4] was 0 to 29% and the pest or weed control at 140 g/ha [1, 4] was 0 to 29%. The pest or weed control at 35 g/ha [1, 5] was 0 to 29%, the pest or weed control at 70 g/ha [1, 5] was 0 to 29% and the pest or weed control at 140 g/ha [1, 5] was 0 to 29%. For the same compound, the pest or weed control at 35 g/ha [1, 6] was 0 to 29%, the pest or weed control at 70 g/ha [1, 6] was 60 to 74% and the pest or weed control at 140 g/ha [1, 6] was 75 to 84%. It also gave a pest or weed control at 35 g/ha [1, 7] of 0 to 29%, a pest or weed control at 70 g/ha [1, 7] of 0 to 29% and a pest or weed control at 140 g/ha [1, 7] of 0 to 29%. The pest or weed control at 35 g/ha [1, 8] was 75 to 84%, the pest or weed control at 70 g/ha [1, 8] was 85 to 94% and the pest or weed control at 140 g/ha [1, 8] was 95 to 100%. It also gave a pest or weed control at 35 g/ha [2, 9] of 0 to 29%, a pest or weed control at 70 g/ha [2, 9] of 45 to 59% and a pest or weed control at 140 g/ha [2, 9] of 75 to 84%. It also gave a pest or weed control at 35 g/ha [2, 10] of 0 to 29%, a pest or weed control at 70 g/ha [2, 10] of 45 to 59% and a pest or weed control at 140 g/ha [2, 10] of 75 to 84%. It also gave a pest or weed control at 35 g/ha [2, 11] of 30 to 44%, a pest or weed control at 70 g/ha [2, 11] of 45 to 59% and a pest or weed control at 140 g/ha [2, 11] of 75 to 84%. The pest or weed control at 35 g/ha [2, 12] was 0 to 29%, the pest or weed control at 70 g/ha [2, 12] was 0 to 29% and the pest or weed control at 140 g/ha [2, 12] was 0 to 29%. It also gave a pest or weed control at 35 g/ha [2, 13] of 0 to 29%, a pest or weed control at 70 g/ha [2, 13] of 30 to 44% and a pest or weed control at 140 g/ha [2, 13] of 30 to 44%. It also gave a pest or weed control at 35 g/ha [2, 14] of 30 to 44%, a pest or weed control at 70 g/ha [2, 14] of 60 to 74% and a pest or weed control at 140 g/ha [2, 14] of 85 to 94%.
